Several values for one entry are separate records, joined by “and”; a condition that tells them apart may be missing. Equal values may be shown once. Inconclusive results and toxic doses are left out.

The assay concerns CD2F1 mice, L1210 leukemia ip, survival T/C. As to the kind of experiment: NCI In Vivo Anticancer Drug Screen. Data for tumor model L1210 Leukemia (intraperitoneal) in CD2F1 (CDF1) mice. The following applies: higher = longer survival. In outline:
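Implant tumor; dose compound or vehicle; measure endpoint in both groups; report treated divided by control.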

Where [1] appears, read: endpoint: mean survival time, dose: 200.0 mg/kg/injection, schedule: Q01DX009 (ip), vehicle: saline with Tween-80.
Where [2] appears, read: endpoint: mean survival time, dose: 100.0 mg/kg/injection, schedule: Q04DX003 (ip), vehicle: saline with Tween-80.
Setting [3] is: endpoint: mean survival time, dose: 200.0 mg/kg/injection, schedule: Q04DX003 (ip), vehicle: saline with Tween-80.
The mark [4] stands for this setting: endpoint: mean survival time, dose: 400.0 mg/kg/injection, schedule: Q04DX003 (ip), vehicle: saline with Tween-80.

As to `Nc1nc(F)nc2c1ncn2C1OC(COP(=O)(O)O)C(O)C1O` (configuration not stated), the T/C reads like this: (endpoint: mean survival time, dose: 6.25 mg/kg/injection, schedule: Q01DX009 (ip), vehicle: saline) 98 % of control; (endpoint: mean survival time, dose: 12.5 mg/kg/injection, schedule: Q01DX009 (ip), vehicle: saline) 104 % of control; (endpoint: mean survival time, dose: 25.0 mg/kg/injection, schedule: Q01DX009 (ip), vehicle: saline) 118 % of control; (endpoint: mean survival time, dose: 50.0 mg/kg/injection, schedule: Q01DX009 (ip), vehicle: saline) 114 % of control; (endpoint: mean survival time, dose: 60.0 mg/kg/injection, schedule: Q01DX009 (ip), vehicle: saline) 124 % of control; (endpoint: mean survival time, dose: 88.98 mg/kg/injection, schedule: Q01DX009 (ip), vehicle: saline with Tween-80) 174 % of control. Moreover, the T/C by setting is: (endpoint: mean survival time, dose: 90.0 mg/kg/injection, schedule: Q01DX009 (ip), vehicle: saline) 182 % of control; (endpoint: mean survival time, dose: 100.0 mg/kg/injection, schedule: Q01DX009 (ip), vehicle: saline) 171 % of control; (endpoint: mean survival time, dose: 133.0 mg/kg/injection, schedule: Q01DX009 (ip), vehicle: saline) 183 % of control; (endpoint: mean survival time, dose: 133.4 mg/kg/injection, schedule: Q01DX009 (ip), vehicle: saline with Tween-80) 244 % of control; (endpoint: mean survival time, dose: 133.4 mg/kg/injection, schedule: Q01DX009 (ip), vehicle: saline) 180 % of control; (endpoint: mean survival time, dose: 135.0 mg/kg/injection, schedule: Q01DX009 (ip), vehicle: saline) 288 % of control and 156 % of control. Besides, the T/C reads like this: under setting [1], 100 % of control; (endpoint: mean survival time, dose: 200.0 mg/kg/injection, schedule: Q01DX009 (ip), vehicle: saline) 231 % of control [middle of 4 runs]; (endpoint: mean survival time, dose: 219.0 mg/kg/injection, schedule: Q01DX009 (ip), vehicle: saline) 362 % of control; (endpoint: mean survival time, dose: 292.0 mg/kg/injection, schedule: Q01DX009 (ip), vehicle: saline) 98 % of control; (endpoint: median survival time, dose: 32.0 mg/kg/injection, schedule: Q01DX009 (ip), vehicle: saline) 114 % of control and 112 % of control; (endpoint: median survival time, dose: 40.0 mg/kg/injection, schedule: Q03HX024 (ip), vehicle: sodium bicarbonate) 167 % of control. Also, the T/C is, setting by setting: (endpoint: median survival time, dose: 47.0 mg/kg/injection, schedule: Q01DX009 (ip), vehicle: saline) 114 % of control and 111 % of control; (endpoint: median survival time, dose: 56.0 mg/kg/injection, schedule: Q03HX024 (ip), vehicle: sodium bicarbonate) 193 % of control; (endpoint: median survival time, dose: 85.0 mg/kg/injection, schedule: Q03HX024 (ip), vehicle: sodium bicarbonate) 168 % of control; (endpoint: median survival time, dose: 90.0 mg/kg/injection, schedule: Q01DX009 (ip), vehicle: saline) 169 % of control and 185 % of control; (endpoint: median survival time, dose: 98.8 mg/kg/injection, schedule: Q01DX009 (ip), vehicle: saline) 178 % of control; (endpoint: median survival time, dose: 100.0 mg/kg/injection, schedule: Q01DX001 (oral), vehicle: sodium bicarbonate) 101 % of control. The T/C (endpoint: median survival time, dose: 100.0 mg/kg/injection, schedule: Q01DX005 (oral), vehicle: sodium bicarbonate) was 111 % of control; the T/C (endpoint: median survival time, dose: 105.0 mg/kg/injection, schedule: Q01DX009 (ip), vehicle: saline) was 172 % of control; the T/C (endpoint: median survival time, dose: 110.0 mg/kg/injection, schedule: Q03HX008 (ip), vehicle: sodium bicarbonate) is 163 % of control; the T/C (endpoint: median survival time, dose: 111.0 mg/kg/injection, schedule: Q01DX009 (ip), vehicle: saline) was 159 % of control; the T/C (endpoint: median survival time, dose: 118.0 mg/kg/injection, schedule: Q01DX005 (ip), vehicle: sodium bicarbonate) was 175 % of control; the T/C (endpoint: median survival time, dose: 125.0 mg/kg/injection, schedule: Q03HX024 (ip), vehicle: sodium bicarbonate) was 625 % of control. Besides, the T/C runs as follows: (endpoint: median survival time, dose: 134.0 mg/kg/injection, schedule: Q01DX009 (ip), vehicle: saline) 196 % of control and 202 % of control; (endpoint: median survival time, dose: 148.0 mg/kg/injection, schedule: Q01DX009 (ip), vehicle: saline) 235 % of control; (endpoint: median survival time, dose: 157.0 mg/kg/injection, schedule: Q01DX009 (ip), vehicle: saline) 182 % of control and 283 % of control; (endpoint: median survival time, dose: 167.0 mg/kg/injection, schedule: Q01DX009 (ip), vehicle: saline) 207 % of control; (endpoint: median survival time, dose: 170.0 mg/kg/injection, schedule: Q03HX008 (ip), vehicle: sodium bicarbonate) 190 % of control; (endpoint: median survival time, dose: 175.0 mg/kg/injection, schedule: Q01DX009 (ip), vehicle: saline) 207 % of control. Moreover, the T/C runs as follows: (endpoint: median survival time, dose: 177.0 mg/kg/injection, schedule: Q01DX005 (ip), vehicle: sodium bicarbonate) 216 % of control; (endpoint: median survival time, dose: 177.0 mg/kg/injection, schedule: Q01DX005 (iv), vehicle: sodium bicarbonate) 171 % of control; (endpoint: median survival time, dose: 200.0 mg/kg/injection, schedule: Q01DX001 (oral), vehicle: sodium bicarbonate) 97 % of control; (endpoint: median survival time, dose: 200.0 mg/kg/injection, schedule: Q01DX009 (ip), vehicle: saline) 219 % of control and 198 % of control; (endpoint: median survival time, dose: 200.0 mg/kg/injection, schedule: Q04DX003 (ip), vehicle: sodium bicarbonate) 152 % of control; (endpoint: median survival time, dose: 222.0 mg/kg/injection, schedule: Q01DX009 (ip), vehicle: saline) 297 % of control. In addition, the T/C reads like this: (endpoint: median survival time, dose: 225.0 mg/kg/injection, schedule: Q01DX009 (ip), vehicle: saline) 304 % of control; (endpoint: median survival time, dose: 234.0 mg/kg/injection, schedule: Q01DX009 (ip), vehicle: saline) 296 % of control; (endpoint: median survival time, dose: 250.0 mg/kg/injection, schedule: Q01DX009 (ip), vehicle: saline) 197 % of control and 284 % of control; (endpoint: median survival time, dose: 250.0 mg/kg/injection, schedule: Q03HX008 (ip), vehicle: sodium bicarbonate) 198 % of control; (endpoint: median survival time, dose: 266.0 mg/kg/injection, schedule: Q01DX001 (ip), vehicle: sodium bicarbonate) 115 % of control; (endpoint: median survival time, dose: 266.0 mg/kg/injection, schedule: Q01DX005 (ip), vehicle: sodium bicarbonate) 222 % of control. The T/C is 195 % of control (endpoint: median survival time, dose: 266.0 mg/kg/injection, schedule: Q01DX005 (iv), vehicle: sodium bicarbonate); 166 % of control (endpoint: median survival time, dose: 300.0 mg/kg/injection, schedule: Q04DX003 (ip), vehicle: sodium bicarbonate); 151 % of control (endpoint: median survival time, dose: 375.0 mg/kg/injection, schedule: Q01DX009 (ip), vehicle: saline); 120 % of control (endpoint: median survival time, dose: 400.0 mg/kg/injection, schedule: Q01DX001 (iv), vehicle: sodium bicarbonate); 100 % of control (endpoint: median survival time, dose: 400.0 mg/kg/injection, schedule: Q01DX001 (oral), vehicle: sodium bicarbonate); 91 % of control (endpoint: median survival time, dose: 400.0 mg/kg/injection, schedule: Q01DX005 (iv), vehicle: sodium bicarbonate). Besides, the T/C (endpoint: median survival time, dose: 450.0 mg/kg/injection, schedule: Q04DX003 (ip), vehicle: sodium bicarbonate) is 212 % of control; the T/C (endpoint: median survival time, dose: 500.0 mg/kg/injection, schedule: Q01DX009 (ip), vehicle: saline) was 94 % of control; the T/C (endpoint: median survival time, dose: 670.0 mg/kg/injection, schedule: Q04DX003 (ip), vehicle: sodium bicarbonate) is 222 % of control; the T/C (endpoint: median survival time, dose: 800.0 mg/kg/injection, schedule: Q01DX001 (oral), vehicle: sodium bicarbonate) is 103 % of control; the T/C (endpoint: median survival time, dose: 800.0 mg/kg/injection, schedule: Q01DX005 (oral), vehicle: sodium bicarbonate) is 150 % of control; the T/C (endpoint: median survival time, dose: 1600.0 mg/kg/injection, schedule: Q01DX001 (oral), vehicle: sodium bicarbonate) is 113 % of control. Besides, the T/C (endpoint: median survival time, dose: 1600.0 mg/kg/injection, schedule: Q01DX005 (oral), vehicle: sodium bicarbonate) was 175 % of control.

As for `CC(=O)Nc1ccc(C=O)cc1`, the T/C is, setting by setting: (endpoint: mean survival time, dose: 50.0 mg/kg/injection, schedule: Q04DX003 (ip), vehicle: saline) 102 % of control; (endpoint: mean survival time, dose: 100.0 mg/kg/injection, schedule: Q04DX003 (ip), vehicle: saline) 100 % of control; (endpoint: mean survival time, dose: 200.0 mg/kg/injection, schedule: Q04DX003 (ip), vehicle: saline) 100 % of control.

Regarding `CN(C)c1ccc(C=NCCCN=Cc2ccc(N(C)C)cc2)cc1`, the T/C runs as follows: (endpoint: mean survival time, dose: 100.0 mg/kg/injection, schedule: Q01DX009 (ip), vehicle: saline with Tween-80) 96 % of control; under setting [2], 95 % of control; under setting [1], 90 % of control; under setting [3], 107 % of control; (endpoint: mean survival time, dose: 400.0 mg/kg/injection, schedule: Q01DX009 (ip), vehicle: saline with Tween-80) 93 % of control; under setting [4], 86 % of control.

On to `CC(C)(C)c1ccc(OCCO)cc1`, for which the T/C (endpoint: mean survival time, dose: 100.0 mg/kg/injection, schedule: Q01DX009 (ip), vehicle: other) was 108 % of control and the T/C under setting [2] was 100 % of control.

For the compound `Nc1ncc(CCS)c(=O)[nH]1`, the T/C is 97 % of control (endpoint: mean survival time, dose: 100.0 mg/kg/injection, schedule: Q01DX001 (ip), vehicle: saline) and 98 % of control (endpoint: mean survival time, dose: 200.0 mg/kg/injection, schedule: Q01DX001 (ip), vehicle: saline).

For the compound `Cc1ccc([N+](=O)[O-])cc1NC(=O)COc1ccc(Cl)cc1`, the T/C was 98 % of control under setting [2], 94 % of control under setting [3] and 90 % of control under setting [4].

Source of the values: PubChem BioAssay AID256 (DTP/NCI, 2004).
